Test results published in publication PMC8596838, “Xylose‐Configured Cyclophellitols as Selective Inhibitors for Glucocerebrosidase” (Chembiochem, 2021).
Read-outs that look alike come from different tables or passages of the source.

Tests used:
Format in all cases: biochemical
[1] = molecular target: T1, rhGBA (recombinant human GBA, Imiglucerase) (Homo sapiens, UniProt P04062, R534H); assay: Fluorogenic substrate (4-MU-β-D-glucoside) enzymatic assay, rhGBA; details: for inhibitory activity against GBA: in vitro, 30 min
T1 construct: purchased Sanofi Genzyme (Cambridge, MA, USA)
T1 sequence (P04062 40-536 R534H): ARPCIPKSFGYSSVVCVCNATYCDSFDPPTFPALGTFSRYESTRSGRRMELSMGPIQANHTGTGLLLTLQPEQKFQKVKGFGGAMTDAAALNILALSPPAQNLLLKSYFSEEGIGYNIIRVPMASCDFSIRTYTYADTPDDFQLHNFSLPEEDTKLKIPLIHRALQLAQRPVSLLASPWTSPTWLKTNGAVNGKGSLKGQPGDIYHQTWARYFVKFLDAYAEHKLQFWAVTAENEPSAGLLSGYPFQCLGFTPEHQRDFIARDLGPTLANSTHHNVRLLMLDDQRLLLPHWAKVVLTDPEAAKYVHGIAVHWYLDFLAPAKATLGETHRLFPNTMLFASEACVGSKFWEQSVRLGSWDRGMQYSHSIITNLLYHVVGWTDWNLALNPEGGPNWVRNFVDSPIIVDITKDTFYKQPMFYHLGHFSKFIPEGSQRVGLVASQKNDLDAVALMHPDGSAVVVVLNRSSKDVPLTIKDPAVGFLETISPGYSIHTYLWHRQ
Method: (§1) Using fluorogenic substrate‐based assays, we determined apparent IC50 values at 30 min incubation time of the xylo‐cyclophellitols in rhGBA, and GBA2 and GBA3 lysates of cells expressing only each of the enzymes specifically.
(§2) Enzyme activity assays: All assays were performed with lysates of HEK293T cells or zebrafish larvae in 96‐well plates at 37 °C. Samples were diluted with McIlvaine buffer (150 mM citric acid‐Na2HPO4) to a final volume of 25 μL, at pH appropriate for each enzyme. Assays were performed by incubating the samples with 100 μL 4‐methylumbelliferyl‐β‐D‐glucoside substrates diluted in McIlvaine buffer (with 0.1 % (w/v) bovine serum albumin (BSA)) for a period of 30 min or 3 h. The substrate mixtures used for each enzyme were as follows: GBA, 3.75 mM 4‐MU‐β‐D‐glucopyranoside (Glycosynth, Warrington Cheshire, UK) at pH 5.2, supplemented with 0.2 % (w/v) sodium taurocholate, 0.1 % (v/v) Triton X‐100, 0.1 % (w/v) bovine serum albumin (BSA); GBA2, 3.75 mM 4 MU‐β‐D‐glucopyranoside at pH 5.8; GBA3, 3.75 mM 4‐MU‐β‐D‐glucopyranoside at pH 6.0. After stopping the enzyme reaction with 200 μL 1 M NaOH‐glycine (pH 10.3), 4‐methylumbelliferone fluorescence was measured with a fluorimeter LS55 (Perkin Elmer, Waltham, MA, USA) with λEX 366 nm and λEM 445 nm. Enzyme activities were determined by subtraction of background (measured for incubations without enzyme). IC50 values were determined exactly as earlier described.[36]
(§3) The IC50 values were determined using a fluorogenic enzymatic assay. For GBA, 3.16 ng (53 fmol) of rhGBA, (recombinant human GBA, Imiglucerase) obtained from Sanofi Genzyme (Cambridge, MA, USA), was prepared in 12.5 μL McIlvaine buffer (150 mM, pH 5.2) supplemented with 0.1 % (v/v) Triton X‐100, and 0.2 % (w/v) sodium taurocholate, 0.1 % (w/v) bovine serum albumin (BSA). The enzyme was incubated with 12.5 μL of inhibitors diluted in McIlvaine buffer (150 mM, pH 5.2) at 37 °C for 30 min. In the case of GBA2 or GBA3, lysates of GBA/GBA2 KO HEK293T cells overexpressing GBA2 or GBA3, respectively where used. The enzymatic activity of GBA, GBA2 and GBA3 were measured with 4MU‐β‐D‐glucoside substrate as described above.

GBA3 = molecular target: T2, GBA3 (Homo sapiens, UniProt Q9H227); assay: Fluorogenic substrate enzymatic assay, lysate of GBA/GBA2 KO HEK293T cells overexpressing GBA3; details: for (Ratio) GBA3/GBA: IC50 ratio; for (Ratio) GBA3/GBA / inhibitory activity against GBA3: in vitro, 30 min; for IC50: incubation time 30 min, enzymatic assay, ±SD, n=3, read-out: In vitro apparent IC50 GBA3
T2 construct: expressed in transfected cells; host or cells: HEK293T (GBA/GBA2 KO background for the fluorogenic assay; endogenous-GBA background with GBA2 and GBA3 overexpressed for ABPP and intact-cell assays)
T2 sequence (Q9H227 1-469): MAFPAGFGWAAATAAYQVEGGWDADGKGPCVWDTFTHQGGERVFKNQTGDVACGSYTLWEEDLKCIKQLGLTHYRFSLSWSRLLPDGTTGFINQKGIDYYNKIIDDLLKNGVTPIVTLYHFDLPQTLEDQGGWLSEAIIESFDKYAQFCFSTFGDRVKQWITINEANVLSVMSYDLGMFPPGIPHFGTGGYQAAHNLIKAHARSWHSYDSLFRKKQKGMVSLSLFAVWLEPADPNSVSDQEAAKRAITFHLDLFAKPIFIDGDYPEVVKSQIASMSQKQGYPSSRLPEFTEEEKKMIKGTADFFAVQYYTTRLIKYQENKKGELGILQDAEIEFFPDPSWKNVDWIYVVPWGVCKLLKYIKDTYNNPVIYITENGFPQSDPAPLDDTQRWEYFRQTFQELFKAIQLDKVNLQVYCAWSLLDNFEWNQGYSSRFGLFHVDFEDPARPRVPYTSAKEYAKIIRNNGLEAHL
Method: as §1, §2, §3

GBA2 = molecular target: T3, GBA2 (Homo sapiens, UniProt Q9HCG7); assay: Fluorogenic substrate enzymatic assay, lysate of GBA/GBA2 KO HEK293T cells overexpressing GBA2; details: for (Ratio) GBA2/GBA / GBA2/GBA ratio, 3 h: IC50 ratio; for (Ratio) GBA2/GBA / inhibitory activity against GBA2: in vitro, 30 min; for IC50: n=3
T3 construct: expressed in transfected cells; host or cells: HEK293T (GBA/GBA2 KO background for the fluorogenic assay; endogenous-GBA background with GBA2 and GBA3 overexpressed for ABPP and intact-cell assays)
T3 sequence (Q9HCG7 1-927): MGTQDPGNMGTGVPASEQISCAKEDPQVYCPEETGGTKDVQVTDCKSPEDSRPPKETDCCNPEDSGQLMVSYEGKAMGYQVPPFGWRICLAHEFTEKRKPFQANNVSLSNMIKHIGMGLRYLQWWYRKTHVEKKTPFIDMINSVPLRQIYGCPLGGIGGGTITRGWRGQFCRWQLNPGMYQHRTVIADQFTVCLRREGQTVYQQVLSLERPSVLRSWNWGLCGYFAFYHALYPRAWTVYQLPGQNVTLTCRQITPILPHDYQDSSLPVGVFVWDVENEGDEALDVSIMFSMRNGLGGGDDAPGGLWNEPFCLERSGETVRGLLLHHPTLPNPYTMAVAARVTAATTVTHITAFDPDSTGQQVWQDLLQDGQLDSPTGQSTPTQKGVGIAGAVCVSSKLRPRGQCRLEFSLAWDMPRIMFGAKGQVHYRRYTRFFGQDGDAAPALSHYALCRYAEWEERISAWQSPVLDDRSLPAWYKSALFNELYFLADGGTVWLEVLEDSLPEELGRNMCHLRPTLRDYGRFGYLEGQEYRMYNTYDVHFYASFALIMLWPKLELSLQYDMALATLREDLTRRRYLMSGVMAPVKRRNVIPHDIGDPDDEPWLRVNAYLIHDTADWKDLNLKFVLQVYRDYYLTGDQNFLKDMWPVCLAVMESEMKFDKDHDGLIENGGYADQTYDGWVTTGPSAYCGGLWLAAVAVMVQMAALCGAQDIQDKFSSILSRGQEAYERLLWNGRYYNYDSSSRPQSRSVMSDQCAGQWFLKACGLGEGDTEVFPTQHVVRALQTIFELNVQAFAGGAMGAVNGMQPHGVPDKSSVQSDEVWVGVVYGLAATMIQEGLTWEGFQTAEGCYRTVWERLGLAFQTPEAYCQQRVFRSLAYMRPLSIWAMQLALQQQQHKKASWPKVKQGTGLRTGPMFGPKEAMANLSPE
Method: as §2
as §3, with “The enzyme was incubated with 12.5 μL of inhibitors diluted in McIlvaine buffer (150 mM, pH 5.2) at 37 °C for 30 min.” left out

[2] = molecular target: T1, rhGBA (recombinant human GBA, Imiglucerase); assay: Fluorogenic substrate (4-MU-β-D-glucoside) enzymatic assay, rhGBA
[3] = incubation time 30 min, enzymatic assay, ±SD, n=3, read-out: In vitro apparent IC50 rhGBA
[4] = incubation time 30 min, enzymatic assay, ±SD, read-out: In vitro apparent IC50 GBA2
[5] = enzymatic assay performed for 3 h, read-out: In vitro apparent IC50 GBA2, 3 h

SMILES	IC50 [1, 3] [nM]	(Ratio) GBA3/GBA (GBA3)	IC50 (GBA3) [nM]	(Ratio) GBA2/GBA (GBA2)	IC50 (GBA2; [4]) [nM]	inhibitory activity against GBA [1]	inhibitory activity against GBA3 (GBA3)	inhibitory activity against GBA2 (GBA2)	IC50 ([2]; enzymatic assay performed for 3 h, n=3, read-out: In vitro apparent IC50 rhGBA, 3 h) [nM]	GBA2/GBA ratio, 3 h (GBA2; in vitro 3 h)	IC50 (GBA2; [5]) [nM]	IC50 [1] [nM]	increase in inhibitory activity towards GBA of aziridines relative to epoxide analogues ([2]; in vitro 3 h)	increase in inhibitory activity towards GBA2 of aziridines relative to epoxide analogues (GBA2; in vitro 3 h)
O=C(CCCCC1SCC2NC(=O)NC21)NCc1cn(CCCCCCCCN2C3CC(O)C(O)C(O)C32)nn1 (centres unmarked) [ABP 7]	164 ± 22.1	155	25300 ± 5010	295	48300 ± 9010									
CC1=CC(C)=[N+]2C1=C(CCCCc1cn(CCCCCCCCN3[C@H]4[C@H](O)[C@@H](O)[C@H](O)C[C@H]43)nn1)c1c(C)cc(C)n1[B-]2(F)F (some centres unmarked) [ABP 8]	2.7 ± 0.45	193	522 ± 209	23	61.2 ± 12									
CN1/C(=C/C=C/C=C/C2=[N+](CCCCCC(=O)NCc3cn(CCCCCCCCN4[C@@H]5[C@H](CO)[C@@H](O)[C@H](O)[C@@H](O)[C@@H]54)nn3)c3ccccc3C2(C)C)C(C)(C)c2ccccc21 (some centres unmarked) [ABP 10, reference compound]	8.1 ± 1.94	1	8.54 ± 1.18	2.6	21.5 ± 0.42									
O[C@@H]1[C@@H](O)[C@H](O)C[C@@H]2O[C@H]12 [compound 11, α‐D‐xylose‐configured cyclophellitol]						no or little inhibitory activity	no or little inhibitory activity	no or little inhibitory activity						
O[C@@H]1[C@@H](O)[C@H](O)C[C@@H]2N[C@H]12 [compound 12]					55800 ± 2340	no or little inhibitory activity	no or little inhibitory activity	no or little inhibitory activity						
O[C@H]1[C@H](O)[C@@H](O)[C@@H]2O[C@@H]2[C@@H]1O [compound 13, Conduritol B‐epoxide, reference compound]	34900 ± 1670	>14	> 500000	>14	> 500000				2630 ± 340	40	105000 ± 5850			
O[C@H]1[C@H](O)[C@@H](O)[C@@H]2N[C@@H]2[C@@H]1O [compound 14, conduritol B‐aziridine, reference compound]										6.6	10800 ± 3300	1630 ± 70	less than two‐fold increase	10–20 fold
